Legend:
[1] = system: sensorimotor abilities in mice; test: Rotarod test; assay type: in vivo; settings: two weeks of cotinine 1 mg/kg and 5 mg/kg
Experimental: At the end of the behavioral testing for FC, mice treated for two weeks with vehicle, cotinine 1 mg/kg and 5 mg/kg were tested in the rotarod as follows. The rotarod test was performed in an apparatus consisting of a 3 cm in diameter rod that was started at 4 rpm, accelerating up to 40 rpm for 5 min. Mice were tested for the time spent on the rod during each trial for a total of four trails per day. Testing during each trial was finished when the mouse fell off the rod and onto a spring-cushioned lever. The results are expressed as latency to fall in seconds (time spent on the rod) with 8 mice/group/treatment.
To discard a confounding effect of cotinine on learning due to changes in motor coordination and fatigue, we tested mice in the rotarod test after 2 weeks of treatment with vehicle or cotinine at the doses indicated in the figure below.

DARPP-32 = DARPP-32 activity in neurons; assay type: cell-based; settings: neurons from rat brain cells
[2] = system: rat cortical cells exposed to Aβ1-42; test: Aβ toxicity assay, MTT cell viability; assay type: cell-based
Experimental: Primary cortical embryonic rat neurons were incubated with 5 μM Aβ in the presence or absence of various concentrations cotinine for […] as described (Echeverria et al. (2005)). Cell viability was assessed using the MTT assay (Sigma). As an alternative approach cell viability after exposure to Aβ and cotinine was assessed using the vital dye calcein-AM (green fluorescence) to stain live cells and propidium iodide to stain dead cells. MTT values were normalized to control values considered 100%.
It has been discovered that cotinine protects brain cortical cells against the toxicity of the Amyloid beta peptide. The cortical cells were exposed to 5 microM Aβ for 24 hours and 48 hours and analyzed for cell viability using two viability tests. Cell viability was quantified by MTT and propidium iodide (PI) and calcein-AM staining assays. MTT assay measures the mitochondrial conversion of the tetrazolium salt MTT (3-(4,5-dimethylthiazol-2-yl)-2,5-diphenyl tetrazolium bromide) to formazan. To perform the MTT assay the cell culture medium was replaced with medium containing MTT (0.5 mg/mL). Following 1-4 h of incubation at 37° C., MTT formazan crystals were dissolved in DMSO and absorbance at 570 nm was measured. Absorbance values are a measure of cell viability. MTT results are expressed as percentage of vehicle treated controls. MTT assays were performed by measuring the levels of formazan after dissolving the precipitates in DMSO. The double calcein—AM and PI staining, involves staining with PI (a fluorescent nucleic acid dye used for the staining of dead cells) and calcein-AM a compound that inside of live brain cells, is converted to the green fluorescent compound calcein. After 30 minutes of incubation of the cells with these compounds were washed and analyzed by fluorescence microscopy. […] Cotinine inhibits Abeta oligomerization and prevents its toxicity on cortical neurons.
Embryonic rat cortical neurons were cultured following the protocol described (Brewer (1995)) but using embryonic cortical tissues obtained from Brain Bits LLC (Springfield, Ill., USA). The brain tissues were dissociated by 0.05% (v/v) trypsin digestion and dissociated by repeated passages through a pipette tip. Cortical cells (2×10^5 cells, 1,250 cells/mm^2) were plated in Neurobasal E medium, supplemented with 2% B27, and 1 mM Glutamax and plated onto 20-mm tissue culture wells coated with poly-D-lysine (0.1 mg/ml). Then cortical cells were incubated at 37° C. in a humidified incubator with 95% air/5% CO2 for 7-10 days, before being used for cell viability and protein expression analysis.
For the Aβ neurotoxicity assay, after 7 days in vitro (DIV) the conditioned media of cortical cells was replaced with Neurobasal E medium, supplemented with 2% B27 without antioxidants (B27-AO; Invitrogen, Carlsbad, Calif.) for 2 h. […]
Cell viability was quantified by MTT and propidium iodide (PI) and calcein-AM staining. […] Following 1-4 h incubation at 37° C., MTT formazan crystals were dissolved in DMSO and absorbance at […] was measured. MTT results are expressed as a percentage of vehicle-treated controls.
To investigate the effect of cotinine on Aβ neurotoxicity, rat cortical cells were grown in conditions that permitted us to obtain a neuron-enriched culture (around 95% neuron and 5% glial cells) for 7-10 days. […] After 24 h, cell survival was assessed by using MTT and PI and calcein-AM cell viability assays. […]

anxiety in mice = test: Elevated plus maze, basal anxiety; assay type: in vivo; settings: cotinine 1 and 5 mg/kg
Excerpt: Mice were placed in an EPM (Stoelting, Wood Dale, Ill., USA) made of grey plexiglas, consisting of two opposite-facing open arms, two opposite-facing closed arms, and a central area. Mice were placed at the end of one of the open arms facing toward the central area before a 5-minute test session was begun. We recorded the number of entries into the open and closed arms and assessed the exploratory behavior of the mice. We utilized a video tracking software that measures movement in each section of the maze in order to determine the time the mice were mobile exploring the different arms. Statistical significance was evaluated using One-way ANOVA with Tukey posttest. ns, not significant.
The elevated plus maze (EPM) is considered the first choice test for screening anxiolytic effects of drugs. This test is based on the fact that higher anxiety levels will decrease the drive to explore a new environment as a way to avoid a potentially dangerous areas (open arms), and will, therefore, cause the mice to stay immobile in the closed arms for a longer period of time.

[3] = system: JNK1/2 phosphorylated (pJNK) at Thr183 and Thr185; test: BDNF-induced pJNK in primary cortical neurons, Western blot; assay type: cell-based; settings: BDNF 100 ng/ml plus cotinine 10 μM, 1 h
Experimental: After 7 days in vitro, cortical neurons were treated with BDNF (100 ng/ml) alone or BDNF plus cotinine (10 μM) for 1 h. After treatments, cells were lysed and whole cell extracts were analyzed for the active forms of JNK and ERKs, pJNK and pERK1/2 by Western blot.

[4] = in vivo; cited from earlier work
cortical cells = test: Survival of cortical cells exposed to cotinine alone, MTT assay; assay type: cell-based, rat; settings: various concentrations of cotinine, 48 hours
Experimental: Cortical cells were subjected to various concentrations of cotinine and cell viability was assessed after 48 hours by MTT assay (see FIG. 1). Statistical significance of the differences in MTT values was assessed by one-way ANOVA with Tukey post-test. ns, not significant difference with (P>0.05).

CN1C(=O)CC[C@H]1c1cccnc1 [cotinine]
sensorimotor abilities, latency to fall (rotarod) [1]: did not affect sensorimotor abilities
activity of DARPP-32 (DARPP-32): increases the activity of DARPP-32
cell survival, % of vehicle-treated control cells (MTT) ([2]; 5 μM Aβ + 10 μM cotinine, 24 h, 7 DIV cortical cells, Aβ alone 76%): 85%
effect on Aβ neurotoxicity when cotinine is added after pre-aggregation of Aβ ([2]; Aβ pre-incubated 3 h at 4° C. without cotinine, then added to media containing 10 μM cotinine): not able to block Aβ neurotoxicity
increase in cell viability versus Aβ alone ([2]; Aβ pre-incubated with 10 μM cotinine 3 h at 4° C.): 22%
viability at 10 µM ([2]; Rattus norvegicus, Aβ pre-incubated with 10 μM cotinine 3 h at 4° C., then 24 h on cells, Aβ alone 66%±3.6): 87.3%
lowest cotinine concentration protecting cortical cells against Aβ toxicity (MTT) ([2]; added together with 5 μM Aβ, 24 h): 1 µM
time spent on open arms (EPM, resting conditions) (anxiety in mice; p=0.4471): did not change
time spent on closed arms (EPM, resting conditions) (anxiety in mice; p=0.6186): did not change
time spent exploring the maze (EPM, resting conditions) (anxiety in mice; p=0.8831): did not change
levels of active JNK1/2 (pJNK) induced by BDNF [3]: decreased the levels of the active forms of JNK1/2
half-life [4]: 10 to 24 h
survival of cortical neurons exposed to cotinine alone (cortical cells): not Affected

From patent US10238641B2, “Materials and methods for diagnosis, prevention and/or treatment of stress disorders and conditions associated with A-beta peptide aggregation” (The United States of America as represented by the …, priority 2008, dated 2019)
